Measured values reported in PubChem BioAssay AID179 (DTP/NCI, 2004).
Calls of active or inactive are those of the source.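 Rule for the calls: active = compounds giving half or more protection of infected cells from virus-caused growth loss, again on retest; inactive = the rest.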

Tested on: CEM cells HIV-1 protection, formazan growth assay
Test: NCI AIDS Antiviral Assay
Details: for IC50: measured here: growth of uninfected CEM cells
Summary of the method: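 Human CEM cells, uninfected and HIV-1-infected, exposed to five drug concentrations; growth measured by soluble formazan assay and scored as percent protection from infection, with protecting compounds retested.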

Compound	EC50 [µM]	IC50 [µM]	outcome
O=Cc1c(O)c(C(=O)Nc2ccc3[nH]c(=O)[nH]c3c2)cc2ccccc12	> 38.9	> 38.9	–
C=C(CCCC(C)OCOCCOC)[Si](C)(C)C (configuration not stated)	> 95.5	> 95.5	–
Cc1nc(C)c(N2CCN(S(=O)(=O)N(Cc3ccccc3)Cc3ccccc3)CC2)c(=O)[nH]1	> 200	> 200	–
O=c1[nH]nc(-c2ccccc2)n1/N=C/c1cccnc1	> 200	61.7	–
COc1cccc(CC2C(=O)N=C(NC(C)=O)N2C)c1OC(C)=O (configuration not stated)	> 200	151	–
C=CC(C)(C)N1c2ccccc2[C@]2(O)C[C@@H]3C(=O)N4/C=C\C(C)(C)c5[nH]c6ccccc6c5/C=C\4C(=O)N3[C@H]12	–	–	inactive
O=Nc1sc(=N\O)/c(=N/O)sc1NO	> 200	32.4	–
Cc1cc2c(C)n(Cc3ccccc3Cl)nc2c(C(=O)O)c1C	> 759	148	–
Cc1nc(CC#N)n[nH]1	> 200	> 200	–
CC1CCCCNC1=S (configuration not stated)	> 200	> 200	–
Cn1c(=O)c2c(nc3n(CCCCl)c(=O)ccn23)n(C)c1=O	> 200	> 100	–
O=C(O)/C=C/c1ccccc1[N+](=O)[O-]	> 257	> 257	–
O=C(CN1CCN(c2ccccc2)CC1)N1CCc2c([nH]c3ccccc23)C1c1cccnc1 (configuration not stated)	> 1.58	> 1.58	–
O=C1/C(=C/c2ccc(O)c(CN3CCCCC3)c2)CCC/C1=C\c1ccc(O)c(CN2CCCCC2)c1	–	–	inactive
COc1cc(OC)nc(NC(=O)NS(=O)(=O)c2cccc3ncn(C)c(=O)c23)n1	–	–	inactive
CCN1CCC(O)(c2ccc(Cl)c(Cl)c2)C(C(=O)c2ccc(Cl)c(Cl)c2)C1 (configuration not stated)	> 67.6	38.9	–
O=C(NCCCl)Nc1ccc(S(=O)(=O)c2ccc([N+](=O)[O-])cc2)cc1	> 200	16.2	–
CCOC(=O)N1CCC(=O)C[C@@H]1C/C=C/P1(=O)O[C@H](c2ccccc2)C(C)N1C(C)C (some centres not stated)	–	–	inactive
COc1ccc(NC(=S)N=Nc2c(O)[nH]c3ccccc23)cc1	> 200	–	–
N#C/C(=C\c1cccc(Br)c1)c1nc2ccccc2c(=O)[nH]1	–	–	inactive
Oc1c(Br)cc(Br)cc1-c1[nH]c(Br)c(Br)c1Br	> 234	1.02	–
CO[C@H]1/C=C/O[C@@]2(C)Oc3c(C)c(O)c4c(O)c(c(/C=N/N5CCN(C)CC5)c(O)c4c3C2=O)NC(=O)/C(C)=C\C=C\[C@H](C)[C@H](O)[C@@H](C)[C@@H](O)[C@@H](C)[C@H](OC(C)=O)[C@@H]1C	> 151	93.3	–
COc1ccc(-n2c(N)c(C#N)c(C#N)c2-c2ccccc2)cc1	> 200	12	–
CCOC(=O)C1N(S(=O)(=O)c2ccc(C)cc2)CCC12C(c1ccc(OC)c(OC)c1)=Nc1ccccc12 (configuration not stated)	–	–	inactive

Compound	EC50 [µM]	IC50 [µM]	outcome
Cc1ccc(Nc2ccc3c4c(cc(=O)n3C)-c3ccccc3C(=O)c24)c(S(=O)(=O)O)c1	> 174	> 174	–
Cn1c(=O)sc2cc(C(=S)N3CCOCC3)ccc21	> 141	64.6	–
NC(Cc1ccc(OCc2ccccc2)cn1)C(=O)O (configuration not stated)	> 200	> 200	–
Cc1cc(C)nc(NS(=O)(=O)c2ccc(NC(=O)c3cccn4c(=O)c5ccccc5nc34)cc2)n1	–	–	inactive
S=C(S)N(Cc1ccccc1)Cc1ccccc1	> 200	24.5	–
COC(=O)c1ccc(/C=C2\Oc3cc(O)ccc3C2=O)cc1	> 200	182	–
COC(=O)C(=O)C(CC(=O)Nc1c(C)cccc1C)C(=O)OC (configuration not stated)	> 776	> 776	–
CCN(CC)Cc1c(OC)ccc2[nH]c3c4ccc(Cl)cc4ncc3c12	> 200	1.1	–
COc1cc2c(c(OC)c1OC)-c1ccc(SC)c(=S)cc1[C@@H](NC(C)=O)CC2	–	–	inactive
COc1cc(C)c(C(=O)Oc2cc(C)c(C(=O)O)c(O)c2C)c(OC)c1C	> 200	70.8	–
O=S1(=O)CC(c2ccccc2)(c2ccccc2)Nc2ccccc21	> 200	> 100	–
Oc1[nH]c2ccccc2c1N=NC(=S)Nc1cccc(Cl)c1	> 200	4.57	–
CCOC(=O)C1=C(C)N(c2ccc(C)cc2)C2=C(C(=O)N(c3ccccc3)C2c2ccccc2)C1c1ccccc1 (configuration not stated)	> 5.01	> 5.01	–
CC1OC(n2cnc3c(=O)[nH]cnc32)C(O)C(O)C1O (configuration not stated)	> 200	> 200	–
Cc1ccc(/C=C(/C(=O)c2ccccc2)c2ccccc2)cc1	> 4.9	> 4.9	–
NC1=C(O)c2cccc3cccc(c23)C1=O	–	–	inactive
CC1=C(C(=O)NCCc2ccccc2)CC(C(=O)NCCc2ccccc2)=C(C)N1	> 200	123	–
Cc1cc(C)nc(NS(=O)(=O)c2ccc(NC(=O)COC(=O)c3cccc4c(=O)c5ccccc5[nH]c34)cc2)n1	–	–	inactive
COC(=O)N/N=C(/CCCC(=O)Nc1cccc([N+](=O)[O-])c1)C(C#N)c1ccc(CC#N)cc1 (configuration not stated)	–	–	inactive
CN(C)C=Nc1c2c(nc3ccccc13)CCCC2	> 200	> 200	–
O=S(=O)(O)c1cc(N=Nc2ccc(/C=C/c3ccc(N=Nc4cc(S(=O)(=O)O)c5cccnc5c4O)cc3)cc2)c(O)c2ncccc12	3.98	93.3	–
O=C(NNC(=O)c1ccccc1O)c1cccs1	> 200	16.2	–
Nc1ccc(C2=NC(C(=O)O)C=C2)cc1 (configuration not stated)	> 200	> 200	–
